Test results: PMC12454639, “Direct disassembly of α-syn preformed fibrils into α-syn monomers by an all-D-peptide” (NPJ Parkinson's Disease, 2025)
Entries after “also recorded” stand apart in the source; their conditions may differ. Square brackets hold non-standard residues; d marks the D form. Peptide text beside a SMILES is read from it.

Key:
α-syn monomer = assay: SDS–PAGE of fractionated de novo aggregation samples; format: biochemical; settings: 10 µM α-syn, 5, 10, 20 µM SVD-1a, 7 days, silver staining
Method: For small PFF pre incubation with or without SVD-1a (Fig. 4) samples were pre-incubated at 37 °C and 600 rpm for 72 h in PBS pH 7.4 with 0.05% sodium azide using protein low binding reaction tubes in a thermos shaker (Eppendorf GmbH, GE). For de novo aggregation analysis, each replicate was pre-incubated in PBS pH 7.4 with 0.05% sodium azide in a 96-well non-binding half-area plate (Corning, USA) in a FLUOStar platereader (BMG labtech, GE) with 300 rpm continuous orbital shaking in between reads, adding one borosilicate bead per well (d = 3 mm, Hilgenberg, GE, n = 7). 10 µM α-syn monomer was incubated with or without 5, 10 or 20 µM SVD-1a for 7 days. […] The α-syn concentration of the samples was then quantified using an α-syn-specific kit (Human α-Synuclein (Colorimetric), 448607, BioLegend, USA). […]
Supplementary Fig. 20: SDS-PAGE analysis of de novo aggregation samples at incubation endpoint in presence or absence of SVD-1a. 10 µM α-syn monomer was incubated with or without 5, 10 or 20 µM SVD-1a for 7d in a 96-well non-binding half-area plate (Corning, USA) in a FLUOStar platereader (BMG labtech, GE) with 300 rpm continuous orbital shaking in between reads adding one borosilicate bead per well (d = 3 mm, Hilgenberg, GE, n = 7). […] Retentate and flow through samples were analyzed using SDS-PAGE with silver staining. […]

small α-syn PFF seeds = assay: Seeded ThT aggregation assay; format: biochemical; settings: then 20 µM α-syn monomer, n = 3
Method: The Thioflavin T (ThT) assay is commonly used for the visualization of α-syn fibrilization, since the dye ThT is able to bind to the amyloidogenic cross-β-sheet proportions of fibril structures. Recombinant α-syn was thawed on ice and centrifuged for 30 min at 21,000 × g and 4 °C. The concentration of the supernatant was determined as described previously. Lyophilized D-peptides were thawed at RT for 1 h and dissolved in 500 µl PBS pH 7.4. After centrifugation for 30 min at 21,000 × g the supernatant concentration was determined by UV–vis using the corresponding extinction coefficient at A280. All ThT assay experiments were performed at 37 °C with 15 µM ThT and 0.05% sodium azide (w/v) in PBS pH 7.4 if not otherwise stated. ThT fluorescence was monitored with bottom optics at λex = 448 nm and λem = 482 nm in a fluorescence plate reader with orbital averaging on 3 mm (Clariostar or Polarstar Optima, BMG labtech, GE). Prior to measurement start, 120 µl sample solution was transferred to a non-binding 96-half area well plate with transparent flat bottom (Corning, USA). One borosilicate glass bead (d = 3.0 mm, Hilgenberg, GE) was added to each well for all de novo aggregation assays. For seeded aggregation assays, no bead was used, and samples were incubated under quiescent conditions. Wells that surrounded the sample wells were filled with the same volume of buffer to improve heat distribution. Experiments were performed with five replicates (n = 5) if not otherwise stated.
ThT assay was used for different purposes. […] Lag-time and t½ were calculated as described previously. […] Measurements were taken every 5 min (n = 3).
small α-syn PFF seeds were prepared as described previously with some modifications. First, insoluble PFF were produced by incubation of 300 µM recombinant α-syn in a LoBind reaction tube (Eppendorf GmbH, GE) with one borosilicate glass bead (d = 3.0 mm; Hilgenberg, DE) in 20 mM NaPi, pH 7.0, 150 mM NaCl, 0.05% (w/v) sodium azide for one week at 37 °C. The insoluble PFF were harvested by ultracentrifugation at 100,000 × g for 30 min at 4 °C, and the pellet was washed several times with 20 mM NaPi, pH 7.0, 150 mM NaCl. The monomer equivalent concentration was determined by measuring the α-syn concentration in the supernatant after the first centrifugation and subtracting it from the start concentration for fibrilization. […]
ThT fluorescence progression was measured in a 96-well non-binding half-area plate (Corning, USA) with a FLUOStar platereader (BMG labtech, GE) at λex = 448 nm and λem = 482 nm. […] 10 µM α-syn monomer was incubated with 5, 10 and 20 µM peptide at 37 °C, adding one borosilicate glass bead per well (d = 3.0 mm, Hilgenberg, GE) with continuous orbital shaking at 300 rpm in between reads. […]

SMILES | aggregate band in retentate / shift to flow-through (α-syn monomer) | effect on elongation rate (small α-syn PFF seeds; 5 µM peptide, 50 nM PFF pre-incubated 20 h) | inhibition of seeding (small α-syn PFF seeds; 20 µM or higher peptide (20 µM for SVD-1_scrambled+5r), 50 nM PFF pre-incubated 20 h) | inhibition of seeded aggregation (small α-syn PFF seeds; 50 nM small α-syn PFF pre-incubated 20 h with peptide, 37 °C quiescent)
CC[C@@H](C)[C@@H](NC(=O)[C@@H](Cc1c[nH]cn1)NC(=O)[C@@H](CCC(=O)O)NC(=O)[C@@H](CCC(N)=O)NC(=O)[C@@H](Cc1c[nH]c2ccccc12)NC(=O)[C@@H](Cc1ccc(O)cc1)NC(=O)[C@H](NC(=O)[C@@H](CCC(=O)O)NC(=O)[C@@H](Cc1c[nH]cn1)NC(=O)[C@H](NC(=O)[C@H]1CCCN1C(=O)[C@@H](CC(C)C)NC(=O)[C@H](N)CCCNC(=N)N)[C@H](C)O)[C@H](C)O)C(=O)N[C@H](Cc1c[nH]c2ccccc12)C(=O)N[C@H](Cc1c[nH]cn1)C(=O)N[C@H](C)C(=O)N[C@H](CCCNC(=N)N)C(=O)N[C@H](CCCNC(=N)N)C(=O)N[C@H](CCCNC(=N)N)C(=O)N[C@H](CCCNC(=N)N)C(=O)N[C@H](CCCNC(=N)N)C(N)=O [SVD-1a] (H-[dR][dL][dP][dT][dH][dE][dT][dY][dW][dQ][dE][dH][dI][dW][dH][dA][dR][dR][dR][dR][dR]-NH2) | a progressive shift of α-syn from the retentate to the flow-through is observed; also recorded: the aggregate band intensity was substantially diminished | a reduction of the elongation rate was observed | complete inhibition of the seeding capacity | –
CC[C@@H](C)[C@@H](NC(=O)[C@@H](Cc1c[nH]cn1)NC(=O)[C@@H](CCC(=O)O)NC(=O)[C@@H](CCC(N)=O)NC(=O)[C@@H](Cc1c[nH]c2ccccc12)NC(=O)[C@@H](Cc1ccc(O)cc1)NC(=O)[C@H](NC(=O)[C@@H](CCC(=O)O)NC(=O)[C@@H](Cc1c[nH]cn1)NC(=O)[C@H](NC(=O)[C@H]1CCCN1C(=O)[C@@H](CCSC)NC(=O)[C@H](N)CCCCN)[C@H](C)O)[C@H](C)O)C(=O)N[C@H](Cc1c[nH]c2ccccc12)C(=O)N[C@H](Cc1c[nH]cn1)C(=O)N[C@H](C)C(N)=O [SVD-1] (H-[dK][dM][dP][dT][dH][dE][dT][dY][dW][dQ][dE][dH][dI][dW][dH][dA]-NH2) | – | – | – | significantly decelerate amyloid growth in the seeded environment; also recorded: inhibits elongation and secondary nucleation of α-syn
